≈ marks a conversion by molar mass, not a printed value. Where “and” joins values, the source holds several entries; their conditions need not be identical. Identical values can stand only once. Like-named read-outs stand apart in the source and are kept apart here. Each block holds one molecule with its values, some of them ahead of it. Residues, ends and D or L forms follow the SMILES beside them.
Assays:
[1] = test system: MRSA 3393; type: cell-based, Staphylococcus aureus; conditions: 3393
Description: (§1) Bacteria were cultivated in Luria-Bertani (LB) broth.

[2] = test system: MRSA ATCC 43300; type: cell-based, Staphylococcus aureus; conditions: ATCC 43300
Description: as §1

[3] = test system: MRSA USA 300; type: cell-based, Staphylococcus aureus
Description: as §1

[4] = test system: MRSA; type: cell-based, Staphylococcus aureus
Description: as §1

[5] = test system: E. coli ATCC 25922; type: cell-based, Escherichia coli
Description: as §1

[6] = test system: E. coli S; type: cell-based, Escherichia coli
Description: as §1

[7] = test system: A. baumannii 1318; type: cell-based, Acinetobacter baumannii
Description: as §1

[8] = test system: A. baumannii 1337; type: cell-based, Acinetobacter baumannii
Description: as §1

[9] = test system: K. pneumoniae 3026; type: cell-based, Klebsiella pneumoniae
Description: as §1

[10] = test system: K. pneumoniae ATCC 700603; type: cell-based, Klebsiella pneumoniae
Description: as §1

[11] = MTT cytotoxicity assay; type: cell-based, human; conditions: human
Description: (§2) To determine the cytotoxicity of the peptides, we used the MTT (3-(4,5)-dimethylthiahiazo (-z-y1)-3,5-di-phenytetrazoliumromide) dye reduction assay against HEK293T cells. In brief, the 100 μL of cells in 96-well plate were incubated for 24 h at 37 °C, 5% CO2, and then peptide solutions (concentrations ranging from 100 to 0.39 μM) were added and further incubated for 72 h. MTT solution (5 mg/mL) was added and further incubated for 4 h. After incubation, the precipitated MTT formazan crystal was dissolved by addition of dimethyl sulfoxide (DMSO). […]

[12] = test system: HEK293T cells; assay: MTT cytotoxicity assay; type: cell-based, human; conditions: for percent cell viability: HEK293T
Description: as §2

[13] = test system: sheep red blood cells; assay: Hemolysis assay
Description: To evaluate the hemolysis effects of peptides, red blood hemolysis was performed as described with minimum modifications. Sterile defibrated sheep blood was purchased from Guangzhou Hongquan Biotechnology Co., LTD. Blood cells were adjusted to 2 × 10^9 cells/mL in phosphate-buffered saline (PBS, pH 7.4). In total, 98 μL sheep red blood cell suspension was incubated with 2 μL of peptides at different concentrations ranging from 3.13 to 100 µM. After incubation for 1 h at 37 °C, the cells were centrifuged and the absorbance of the supernatant was measured at 450 nm. The value for “zero hemolysis” was determined using sterile PBS, while 100% hemolysis was established using 1.5% (v/v) Triton X-100. Hemolysis of testing sample was calculated as the percentage of Triton X-100-induced hemolysis.

[14] = test system: Acinetobacter baumannii; type: cell-based
Description: as §1

[15] = test system: all tested bacterial strains; conditions: range over all strains
Description: The bacterial strains used in this study included the Gram-positive bacteria methicillin resistant Staphylococcus aureus (MRSA) (MRSA ATCC 43300 and 2 clinically isolated strains presented as MRSA USA 300 and MRSA 3393), Gram-negative bacteria Escherichia coli (E. coli ATCC 25922, and 1 clinically isolated strain presented as E. coli S), Klebsiella pneumoniae (K. pneumoniae ATCC 700603, and 1 clinically isolated strain presented as K. pneumoniae 3026), and Acinetobacter baumannii (2 clinically isolated strains presented as A. baumannii 1318 and A. baumannii 1337). Bacteria were cultivated in Luria-Bertani (LB) broth.
The Clinical and Laboratory Standards Institute (CLSI)-defined broth microdilution testing method (M07, 11th edition, 2018) was used to determine MICs for peptides. Briefly, the concentrations of the peptides and ciprofloxacin in the assay wells ranged from 100 μM to 0.01 μM as a 11-point dose response plated as a 2-fold dilution series across the wells of the plate in duplicate for each independent biological replicate. Bacterial susceptibility assays were performed in Cation-Adjusted Mueller Hinton Broth (CAMHB), and using a final cell density of 5 × 10^6 CFU/mL for bacteria[36]. Final assay volumes were 100 μL per well with MICs determined by measuring absorbance at 595 nm with a microplate reader following 18–20 h incubation at 37 °C. […]

[16] = test system: Gram-negative bacterial strains; type: cell-based; conditions: range over the strains
Description: as §1

[17] = HEK293T cells, OD450, cytotoxicity (Fig 2a), replicates

- MIC Gram+ MRSA 3393 [1]: 6.25 µM (≈ 8.07 µg/mL)
- MIC Gram+ MRSA ATCC 43300 [2]: 3.13 µM (≈ 4.04 µg/mL)
- MIC Gram+ MRSA USA 300 [3]: 6.25 µM (≈ 8.07 µg/mL)
- MICs against MRSA [4]: 3.13 to 6.25 µM
- MIC Gram- E. coli ATCC 25922 [5]: 25 µM (≈ 32.3 µg/mL)
- MIC Gram- E. coli S [6]: 12.5 µM (≈ 16.1 µg/mL)
- MIC Gram- A. b 1318 [7]: 25 µM (≈ 32.3 µg/mL)
- MIC Gram- A. b 1337 [8]: 25 µM (≈ 32.3 µg/mL)
- MIC Gram- K. p 3026 [9]: > 100 µM
- MIC Gram- K. p ATCC 700603 [10]: > 100 µM
- MIC against Gram-negative Acinetobacter baumannii [14]: 25 µM (≈ 32.3 µg/mL)
Structure (SMILES): CC[C@H](C)[C@H](NC(=O)[C@H](CCCNC(=N)N)NC(=O)[C@H](CCCNC(=N)N)NC(=O)[C@H](CC(C)C)NC(=O)[C@@H](N)Cc1ccccc1)C(=O)N[C@@H](Cc1ccccc1)C(=O)N[C@@H](Cc1ccccc1)C(=O)N[C@@H](Cc1ccccc1)C(=O)N[C@@H](Cc1ccccc1)C(N)=O [HT1] (H-FLRRIFFFF-NH2)
- IC50 at 72 h [11]: 2.7 µM
- viability at 72 h, 0.39 µM [11, 17]: 93.6%
- viability at 72 h, 0.78 µM [11, 17]: 87.3%
- viability at 72 h, 1.57 µM [11, 17]: 78%
- viability at 72 h, 3.13 µM [11, 17]: 30.5%
- viability at 72 h, 12.5 µM [11, 17]: 0.557%
- viability at 72 h, 25 µM [11, 17]: 1.3%
- toxicity / cytotoxicity against HEK293T cells (in words) [12]: high toxicity
- HC10 (concentration inducing 10% hemolysis) ([13]; red cells of sheep, 1 h): 25.0 µM

Structure (SMILES): CC[C@H](C)[C@H](NC(=O)[C@H](CCCNC(=N)N)NC(=O)[C@H](CCCNC(=N)N)NC(=O)[C@H](CC(C)C)NC(=O)[C@H](Cc1ccccc1)NC(=O)[C@@H](N)CCCNC(=N)N)C(=O)N[C@@H](Cc1ccccc1)C(=O)N[C@@H](CCCNC(=N)N)C(=O)N[C@@H](Cc1ccccc1)C(=O)N[C@@H](Cc1ccccc1)C(=O)N[C@@H](Cc1ccccc1)C(N)=O [HT4] (H-RFLRRIFRFFF-NH2)
- MIC Gram+ MRSA 3393 [1]: 3.13 µM (≈ 5.02 µg/mL)
- MIC Gram+ MRSA ATCC 43300 [2]: 3.13 µM (≈ 5.02 µg/mL)
- MIC Gram+ MRSA USA 300 [3]: 3.13 µM (≈ 5.02 µg/mL)
- MIC Gram- E. coli ATCC 25922 [5]: 6.25 µM (≈ 10 µg/mL)
- MIC Gram- E. coli S [6]: 12.5 µM (≈ 20 µg/mL)
- MIC Gram- A. b 1318 [7]: 3.13 µM (≈ 5.02 µg/mL)
- MIC Gram- A. b 1337 [8]: 3.13 µM (≈ 5.02 µg/mL)
- MIC Gram- K. p 3026 [9]: 12.5 µM (≈ 20 µg/mL)
- MIC Gram- K. p ATCC 700603 [10]: 3.13 µM (≈ 5.02 µg/mL)
- IC50 at 72 h [11]: 2.6 µM
- viability at 72 h, 0.39 µM [11, 17]: 85.8%
- viability at 72 h, 0.78 µM [11, 17]: 80%
- viability at 72 h, 1.57 µM [11, 17]: 70.9%
- viability at 72 h, 3.13 µM [11, 17]: 34.7%
- viability at 72 h, 6.25 µM [11, 17]: 22.3%
- viability at 72 h, 12.5 µM [11, 17]: 13.4%
- viability at 72 h, 25 µM [11, 17]: 5.83%
- toxicity / cytotoxicity against HEK293T cells (in words) [12]: high toxicity
- HC10 (concentration inducing 10% hemolysis) ([13]; red cells of sheep, 1 h): 12.5 µM
- MICs against all tested bacterial strains [15]: 3.13 to 12.5 µM

Structure (SMILES): CC[C@H](C)[C@H](NC(=O)[C@H](CCCNC(=N)N)NC(=O)[C@H](CCCNC(=N)N)NC(=O)[C@H](CC(C)C)NC(=O)[C@H](Cc1ccccc1)NC(=O)[C@@H](N)CCCNC(=N)N)C(=O)N[C@@H](Cc1ccccc1)C(=O)N[C@@H](CCCCN)C(=O)N[C@@H](Cc1ccccc1)C(=O)N[C@@H](Cc1ccccc1)C(=O)N[C@@H](Cc1ccccc1)C(N)=O [HT5] (H-RFLRRIFKFFF-NH2)
- MIC Gram+ MRSA 3393 [1]: 3.13 µM (≈ 4.93 µg/mL)
- MIC Gram+ MRSA ATCC 43300 [2]: 3.13 µM (≈ 4.93 µg/mL)
- MIC Gram+ MRSA USA 300 [3]: 3.13 µM (≈ 4.93 µg/mL)
- MIC Gram- E. coli ATCC 25922 [5]: 6.25 µM (≈ 9.85 µg/mL)
- MIC Gram- E. coli S [6]: 6.25 µM (≈ 9.85 µg/mL)
- MIC Gram- A. b 1318 [7]: 3.13 µM (≈ 4.93 µg/mL)
- MIC Gram- A. b 1337 [8]: 3.13 µM (≈ 4.93 µg/mL)
- MIC Gram- K. p 3026 [9]: 12.5 µM (≈ 19.7 µg/mL)
- MIC Gram- K. p ATCC 700603 [10]: 12.5 µM (≈ 19.7 µg/mL)
- IC50 at 72 h [11]: 2.3 µM
- viability at 72 h, 0.39 µM [11, 17]: 85.5%
- viability at 72 h, 0.78 µM [11, 17]: 79.4%
- viability at 72 h, 1.57 µM [11, 17]: 62.7%
- viability at 72 h, 3.13 µM [11, 17]: 21%
- viability at 72 h, 6.25 µM [11, 17]: 22.6%
- viability at 72 h, 12.5 µM [11, 17]: 8.57%
- viability at 72 h, 25 µM [11, 17]: 10.4%
- toxicity / cytotoxicity against HEK293T cells (in words) [12]: high toxicity
- HC10 (concentration inducing 10% hemolysis) ([13]; red cells of sheep, 1 h): 12.5 µM
- MICs against all tested bacterial strains [15]: 3.13 to 12.5 µM

Structure (SMILES): CC[C@H](C)[C@H](NC(=O)[C@H](CCCNC(=N)N)NC(=O)[C@H](CO)NC(=O)[C@H](CC(C)C)NC(=O)[C@H](Cc1ccccc1)NC(=O)[C@H](Cc1ccccc1)NC(=O)[C@@H](N)Cc1ccccc1)C(=O)N[C@@H](Cc1ccccc1)C(N)=O [SHf] (H-FFFLSRIF-NH2; N-terminus assumed)
- MICs against MRSA ([4]; range over the MRSA strains): 50 to 100 µM
- viability at 72 h, 0.39 µM ([11]; HEK293T cells, HEK293T, 0.39 µM, read-out: OD450, cytotoxicity (Fig 2a), replicates): 99%
- viability at 72 h, 0.78 µM ([11]; HEK293T cells, HEK293T, 0.78 µM, read-out: OD450, cytotoxicity (Fig 2a), replicates): 90.4%
- viability at 72 h, 1.57 µM ([11]; HEK293T cells, HEK293T, 1.57 µM, read-out: OD450, cytotoxicity (Fig 2a), replicates): 97.8%
- viability at 72 h, 3.13 µM ([11]; HEK293T cells, HEK293T, 3.13 µM, read-out: OD450, cytotoxicity (Fig 2a), replicates): 100%
- viability at 72 h, 6.25 µM ([11]; HEK293T cells, HEK293T, 6.25 µM, read-out: OD450, cytotoxicity (Fig 2a), replicates): 92.7%
- viability at 72 h, 12.5 µM ([11]; HEK293T cells, HEK293T, 12.5 µM, read-out: OD450, cytotoxicity (Fig 2a), replicates): 93.4%
- viability at 72 h, 25 µM ([11]; HEK293T cells, HEK293T, 25 µM, read-out: OD450, cytotoxicity (Fig 2a), replicates): 94.9%
- viability at 72 h, 50 µM ([11]; HEK293T cells, HEK293T, 50 µM, read-out: OD450, cytotoxicity (Fig 2a), replicates): 92.3%
- viability at 72 h, 100 µM ([11]; HEK293T cells, HEK293T, 100 µM, read-out: OD450, cytotoxicity (Fig 2a), replicates): 27.1%
- IC50 at 72 h ([11]; HEK293T, MTT, 72 h, read-out: IC50, mammalian cell cytotoxicity): 59 µM
- percent cell viability ([12]; 0.39 µM): 94.1313 and 97.2791
- percent cell viability ([12]; 0.78 µM): 95.9839 and 98.206
- percent cell viability ([12]; 1.57 µM): 94.1313 and 96.7238
- percent cell viability ([12]; 3.13 µM): 98.2056
- percent cell viability ([12]; 6.25 µM): 98.9467 and 92.2795
- percent cell viability ([12]; 12.5 µM): 99.6874 and 99.3163
- percent cell viability ([12]; 25 µM): 98.9463 and 99.3171
- percent cell viability ([12]; 50 µM): 91.54 and 92.6507
- percent cell viability ([12]; 100 µM): 21.5425 and 18.5796
- OD450, hemolysis (Fig 2b), replicates ([13]; 3.13 µM): 0.01725 and 0.01686 and 0.01568 and 0.01738 and 0.01699 and 0.0158
- OD450, hemolysis (Fig 2b), replicates ([13]; 6.25 µM): 0.01882 and 0.01529 and 0.01725 and 0.01896 and 0.01541 and 0.01738
- OD450, hemolysis (Fig 2b), replicates ([13]; 12.5 µM): 0.01725 and 0.01803 and 0.01764 and 0.01738 and 0.01817 and 0.01777
- OD450, hemolysis (Fig 2b), replicates ([13]; 25 µM): 0.01921 (2×) and 0.01764 and 0.01936 (2×) and 0.01777
- OD450, hemolysis (Fig 2b), replicates ([13]; 50 µM): 0.02038 and 0.02156 and 0.01921 and 0.02054 and 0.02173 and 0.01936
- OD450, hemolysis (Fig 2b), replicates ([13]; 100 µM): 0.01999 and 0.02234 and 0.02195 and 0.02014 and 0.02252 and 0.02212
- hemolytic activity (in words) ([13]; sheep red blood cells, 3.13–100 μM): did not present hemolytic activity
- HC10 (concentration inducing 10% hemolysis) ([13]; sheep red blood cells, 1 h at 37 °C): > 100.0 µM
- MICs against the tested Gram-negative bacterial strains [16]: > 100 µM
